Data: PMC11703096 (PLOS ONE, 2025)

Assays:
[1] = biological target: T1, A32WT (vaccinia virus A32, putative genome packaging ATPase) (Vaccinia virus WR, UniProt P68615, L234K/Q237A); details: read-out: A32LL234K_Q237A / - / DNA
T1 construct: gene OPG160

[2] = biological target: T2, A32WT (vaccinia virus A32, putative genome packaging ATPase) (Vaccinia virus WR, UniProt P68615, K31A); details: read-out: A32K31A / - / DNA
T2 construct: gene OPG160

native gel or EMSA = biological target: the molecule itself; experiment: native gel or EMSA

Molecule | Km [1] [µM] | Km [2] [µM] | binding result (native gel or EMSA)
Nc1ncnc2c1ncn2[C@@H]1O[C@H](COP(=O)(O)OP(=O)(O)OP(=O)(O)O)[C@@H](O)[C@H]1O [ATP] | 0.66 | 0.2 | 
vaccinia virus A32 protein with an N-terminal thioredoxin tag and a C-terminal hexahistidine tag (A32WT) (enzyme) MNCFQEKQFSRENLLKMPFRMVLTGGSGSGKTIYLLSLFSTLVKKYKHIFLFTPVYNPDYDGYIWPNHINFVSSQESLEYNLIRTKSNIEKCIAVAQNHKKSAHFLLIFDDVGDKLSKCNTLIEFLNFGRHLNTSIILLCQTYRHVPILGRANITHFCSFNISISDAENMLRSMPVKGKRKDILNMLNMIQTARSNNRLAIIIEDSVFCEGELRICTDTADKDVIEQKLNIDILVNQYSHMKKNLNAILESKKTKLCNSDQSSSSKNVSS |  |  | binds
